The source of these data is patent US7524927B2, “Compositions, method and kits relating to deletion mutations of immunodeficiency virus gp120 hypervariable regions” (priority 2003, dated 2009).

Read-outs that look alike come from different tables or passages of the source.

The target of test [1] is T1, CXCR4 (Homo sapiens, UniProt P61073).
T1 construct: expressed in transfected cells
The test is classed as binding. As for the experimental part:
Western blot binding assay. […] In this assay, the gp120 of interest is added to cells expressing the desired coreceptor either in the absence or presence of sCD4. After binding for 30 min, the cells are washed, lysed, and bound gp120 detected by western blot.

The test system of test [2] is HIV-2/VCP virus (wildtype VCP). The experiment in a line: microbe, parasite or virus in culture. From the text:
(§1) Each virus was innoculated onto SupT1 cells in the presence of varying concentrations of AMD3100 (0, 10, 100, 1,000, and 10,000 nm as indicated).
(§2) This bicyclam specifically blocks CXCR4 function and its ability to serve as a receptor for X4 Envs by binding to two Asp residues at the base of the CXCR4 second and […] extracellular loops.

Test [3] relates to V3(6,6) Env pseudotype. Conditions: U87/CD4/CXCR4 target cells. As to the method:
(§3) FIG. 9B is a diagram depicting AMD3100 sensitivity for viral pseudotypes containing the indicated Envs as indicated, i.e., VCP, V3(6,6); V1/V2, and V3(6,6). Sensitivity to AMD3100 was assessed using U87/CD4/CXCR4 target cells. Two different Env clones comprising deletion of V3(6,6) in combination with deletion of V1/V2 are depicted.

Test [4] concerns V3(6,6); V1/V2 Env pseudotypes. Conditions: U87/CD4/CXCR4 target cells; two Env clones. As for the experimental part: as §3
For test [5], the system named is VCP Env pseudotype. Conditions: U87/CD4/CXCR4 target cells. As to the method: as §3
Test [6] has as its system ΔV3(6,6) virus. Conditions: SupT1 cells.
Description: as §1, §2

Test [7] has as its system ΔV1/V2; ΔV3(6,6) virus. Conditions: SupT1 cells.
Description: as §2

T1 sequence (P61073 whole entry): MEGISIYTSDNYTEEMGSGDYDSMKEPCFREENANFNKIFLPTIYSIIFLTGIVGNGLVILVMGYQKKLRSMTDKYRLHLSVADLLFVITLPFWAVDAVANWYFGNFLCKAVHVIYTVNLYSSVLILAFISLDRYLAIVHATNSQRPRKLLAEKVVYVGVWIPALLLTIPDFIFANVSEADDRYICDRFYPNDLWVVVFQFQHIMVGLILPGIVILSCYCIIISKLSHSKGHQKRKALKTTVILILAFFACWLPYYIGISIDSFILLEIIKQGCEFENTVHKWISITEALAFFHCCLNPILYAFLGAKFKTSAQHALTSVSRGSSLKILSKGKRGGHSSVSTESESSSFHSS

In the case of “SDF-1: natural chemokine ligand of CXCR4 [reference compound]”, in test [1] (VCP gp120), the “Inhibition of VCP gp120 binding to CXCR4-expressing cells” value is listed as “inhibitable”.

As a reminder, the IC50 is the concentration at which inhibition is half-maximal. Regarding `c1cc(CN2CCCNCCNCCCNCC2)ccc1CN1CCCNCCNCCCNCC1` [AMD3100], the “Sensitivity of virus to AMD3100” value in test [2] (0, 10, 100, 1,000, and 10,000 nm AMD3100, SupT1 cells) was “sensitive”. Moreover, in test [2] (Human immunodeficiency virus 2, SUP-T1, read-out: IC50 for inhibition of infection of SupT1 cells), the IC50 was approximately 50 nM. Moreover, the figures for the “AMD3100 sensitivity of pseudotype” value in test [3], in test [4] and in test [5] were “complete resistance”, “complete resistance” and “sensitivity”, respectively. Further, in test [6] (adapted (p16) virus, up to 10,000 nm AMD3100), the “Resistance of virus to AMD3100” value is reported as “completely resistant”. In addition, the “AMD3100 concentration at which virus could not be blocked” value in test [6] (ΔV3(6,6) virus) and in test [7] was “greater than 10,000 nM” each time. Further, in test [1], the “Inhibition of VCP gp120 binding to CXCR4-expressing cells” value is listed as “inhibitable”.
